The nature of data set [1]: Solid stability test (80° C. hermetically sealed, one week, HPLC Method D). Format: physicochemical. The note with it: for Residual ratio (%): sealed storage, content by HPLC; for Types of analogous substances generated: 80° C. hermetically sealed, one week. Here is the method: Column: Cadenza CD-C18, φ 3.0×150 mm, 3 μm
Flow rate: 0.55 mL per minute
UV detection wavelength: 262 nm
Mobile phase A: 0.1% TFA aqueous solution
Mobile phase B: Acetonitrile
5 mg sample (n=4) was precisely weighed in 2 mL vial, capped, and stored at a predetermined temperature (sealed storage). Then, each sample was taken out after storage for a predetermined period, and stability (content) was evaluated.
80° C. hermetically sealed
Each vial was washed out into a 25 mL volumetric flask.
Diluting medium: acetonitrile/water=1/1

Data set [2] can be described thus: Flowability test (Compressibility index and Hausner ratio). It counts as physicochemical. The note with it: for Compressibility index (%): (V0−Vf)/V0×100; for Hausner ratio: V0/Vf; for V0 (mL), loose bulk volume: about 10 g sample in 50 mL measuring cylinder, no compaction; for V0 (mL), loose bulk volume / Vf (mL), final tap volume: average of three; for Vf (mL), final tap volume: about 10 g sample, tapped until volume difference <= 0.5 mL. As to the method:
1) About 10 g of a sample was gently put into a 50 mL measuring cylinder, and the sample amount was measured.
2) The upper surface of the powder layer was carefully leveled without compaction, and the loose bulk volume (V0) was read.
3) The measuring cylinder was mounted on a support stand of a powder tester (PT-X type, Hosokawa Micron Corporation).
4) The powder sample was tapped 10 times, 500 times, 1250 times, 2500 times and the corresponding bulk volumes (V10, V500, V1250, V2500) were read.
5) The process was ended when the volume difference was equal to or less than the minimum scale (0.5 mL), and the final bulk volume was defined as the final tap volume (Vf).
6) The steps 1) to 5) were repeated three times and measured, and the average values were adopted for calculation of the Compressibility index and the Hausner ratio.
Compressibility index=(V0−Vf)/V0×100 Hausner ratio=V0/Vf

As for `C[C@@H](Cn1c(=O)[nH]/c(=N\c2ccc(Oc3ccccn3)cc2)n(Cc2ccc(Cl)cc2)c1=O)C(=O)O` [Anhydrous crystal Form I of compound represented by Formula ], in data set [1] (80° C. 1W), the “Peak area (%) of analogous substance, retention time 15.5 min” value was 0.16%; the “Peak area (%) of analogous substance, retention time 17.1 min” value came to 0.04%; the “Peak area (%) of analogous substance, retention time 20.6 min” value came out at 0.03%; the “Purity (%)” value was 99.77%. In addition, the “Residual ratio (%)” value in data set [1] (80° C. 1W) is recorded as 99.79%. Moreover, the “Types of analogous substances generated” value in data set [1] is reported as “three types”. In data set [1] (Initial), the “Peak area (%) of analogous substance, retention time 15.5 min” value is 0.16%; the “Peak area (%) of analogous substance, retention time 17.1 min” value came to 0.05%; the “Peak area (%) of analogous substance, retention time 20.6 min” value is reported as 0.03%; the “Purity (%)” value came to 99.76%. Also, in data set [2], the “Compressibility index (%)” value is 25.4%; the Hausner ratio was 1.3; the “V0 (mL), loose bulk volume” value is recorded as 19.0 mL; the “Vf (mL), final tap volume” value turned out to be 14.2 mL. Besides, the “Flowability compared with the other crystal forms” value in data set [2] (from Compressibility index, Table 15) is on record as “better flowability as compared with the other two crystal forms”.
On to `C[C@@H](Cn1c(=O)[nH]/c(=N\c2ccc(Oc3ccccn3)cc2)n(Cc2ccc(Cl)cc2)c1=O)C(=O)O` [Dihydrate crystal of compound represented by Formula (I)], for which, in data set [1] (80° C. 1W), the “Peak area (%) of analogous substance, retention time 3 min” value is 0.05%; the “Peak area (%) of analogous substance, retention time 15.5 min” value was 0.09%; the “Purity (%)” value is listed as 99.86%; the “Residual ratio (%)” value amounted to 99.13%. In addition, in data set [1], the “Types of analogous substances generated” value was “two types”. Besides, in data set [1] (Initial), the “Peak area (%) of analogous substance, retention time 15.5 min” value worked out at 0.09% and the “Purity (%)” value was 99.91%. Moreover, in data set [2], the “Compressibility index (%)” value was 35.9%; the Hausner ratio worked out at 1.6; the “V0 (mL), loose bulk volume” value amounted to 30.7 mL; the “Vf (mL), final tap volume” value is 19.7 mL.
`C[C@@H](Cn1c(=O)[nH]/c(=N\c2ccc(Oc3ccccn3)cc2)n(Cc2ccc(Cl)cc2)c1=O)C(=O)O` [Ethyl acetate/hexane solvate crystal of compound represented] [reference compound]: in data set [1] (80° C. 1W), the “Peak area (%) of analogous substance, retention time 3 min” value turned out to be 0.06%; the “Peak area (%) of analogous substance, retention time 5.8 min” value is 0.01%; the “Peak area (%) of analogous substance, retention time 10.5 min” value came out at 0.14%; the “Peak area (%) of analogous substance, retention time 14 min” value turned out to be 0.04%. In addition, in data set [1] (80° C. 1W), the “Peak area (%) of analogous substance, retention time 16.9 min” value is given as 0.03%; the “Purity (%)” value is reported as 99.71%; the “Residual ratio (%)” value worked out at 99.03%. Further, the “Types of analogous substances generated” value in data set [1] is “five types”. Besides, in data set [1] (Initial), the “Peak area (%) of analogous substance, retention time 3 min” value came out at 0.06%; the “Peak area (%) of analogous substance, retention time 5.8 min” value was 0.01%; the “Peak area (%) of analogous substance, retention time 10.5 min” value was determined as 0.15%; the “Peak area (%) of analogous substance, retention time 14 min” value is listed as 0.04%. Besides, in data set [1] (Initial), the “Peak area (%) of analogous substance, retention time 16.9 min” value turned out to be 0.04% and the “Purity (%)” value turned out to be 99.71%. Further, in data set [2], the “Compressibility index (%)” value was found to be 36.7%; the Hausner ratio was 1.6; the “V0 (mL), loose bulk volume” value is 36.8 mL; the “Vf (mL), final tap volume” value came to 23.3 mL.

Source of the values: patent US12312327B2, “Crystal of 1,3,5-triazine derivative or solvate thereof and method for producing same” (Shionogi & Co., Ltd., priority 2019, dated 2025).
